We go through 7 compounds from PubChem BioAssay (NCI).

Test systems include MDA-MB-435; PC-3 prostate; SK-OV-3 ovarian; RPMI-8226 leukemia; SK-MEL-2 melanoma; NCI-H23 lung; OVCAR-4 ovarian; MDA-N; BT-549 breast; MCF7 breast; HCT-15 colon; SW-620 colon; KM12 colon; NCI/ADR-RES ovarian; IGROV1 ovarian; SN12C renal; HOP-92 NSCLC; NCI-H522 lung; UO-31 renal; A498 renal.
Experiment in all cases: growth of human tumour cells (NCI), 48 h

Structures are written as SMILES.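 1) Cells in 96-well plates. 2) Compound, 48 h, 5 concentrations. 3) Linear interpolation between surrounding doses. 4) Unreached endpoint = highest concentration. TGI denotes the concentration required for complete inhibition of growth.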

On to `NCCCCC(N)C(=O)N1CCN(c2nc(N3CCCC3)c3nc(Cl)c(NCc4ccccc4)nc3n2)CC1` (stereo unspecified), for which the TGI in the test with MDA-MB-435 came out at 46.6 µM; with PC-3 prostate, 32.1 µM; in the test on SK-OV-3 ovarian it was 37.4 µM; with RPMI-8226 leukemia, 44.4 µM; in the test on SK-MEL-2 melanoma, 35.9 µM; in the test on NCI-H23 lung it was 37.9 µM. For the same compound, the TGI in the test on OVCAR-4 ovarian amounted to 50.8 µM; in the test on MDA-N, 33.7 µM; in the test with BT-549 breast it was 34.4 µM; in the test with MCF7 breast, 38.1 µM; in the test on HCT-15 colon it was 35.2 µM; in the test on SW-620 colon, 47.7 µM. The TGI was 47.2 µM in the test with KM12 colon; above 100 µM in the test with NCI/ADR-RES ovarian; 33.9 µM in the test on IGROV1 ovarian; 34.3 µM in the test on SN12C renal; 25.8 µM in the test with HOP-92 NSCLC; 42.1 µM with NCI-H522 lung. The compound further gave a TGI with UO-31 renal of 32.9 µM.
For `Nc1ccn([C@H]2CO[C@@H](CO)O2)c(=O)n1`, the TGI with MDA-MB-435, with PC-3 prostate, in the test on SK-OV-3 ovarian, in the test on RPMI-8226 leukemia, in the test with SK-MEL-2 melanoma and in the test with NCI-H23 lung was above 100 µM throughout. Further, the TGI in the test with OVCAR-4 ovarian, with MDA-N, in the test on BT-549 breast, in the test with MCF7 breast, with HCT-15 colon and with SW-620 colon was above 100 µM each time. Further, the TGI in the test on KM12 colon was above 100 µM; in the test with NCI/ADR-RES ovarian, above 100 µM; in the test with IGROV1 ovarian, above 100 µM; in the test on SN12C renal, above 100 µM; with HOP-92 NSCLC, 43.8 µM; in the test on NCI-H522 lung it was above 100 µM. This compound also returned a TGI in the test on UO-31 renal above 75.1 µM.
Consider `COC(=O)[C@@]12CC[C@]1(C(=O)OC)C1C(C)=CC(=O)O[C@@]12C` (stereo partly specified), for which the TGI with MDA-MB-435, in the test on PC-3 prostate, with SK-OV-3 ovarian, in the test on RPMI-8226 leukemia, with NCI-H23 lung and in the test on OVCAR-4 ovarian was above 100 µM throughout. The TGI in the test on MDA-N, with BT-549 breast, in the test on MCF7 breast, in the test with HCT-15 colon, in the test on SW-620 colon and in the test on KM12 colon was above 100 µM each time. In addition, the TGI in the test with NCI/ADR-RES ovarian, in the test on IGROV1 ovarian, in the test on SN12C renal, in the test with HOP-92 NSCLC, in the test on NCI-H522 lung and in the test with UO-31 renal was above 100 µM in each case.
With `CCCCCCc1cc2cc(C(=O)Nc3ccccc3F)c(=N)oc2cc1O`, the TGI in the test with MDA-MB-435 is 10.2 µM; in the test with PC-3 prostate it was 26.8 µM; in the test on SK-OV-3 ovarian it was 29.3 µM; with A498 renal, 37.2 µM; in the test with RPMI-8226 leukemia it was above 100 µM; in the test with SK-MEL-2 melanoma, 26.8 µM. Moreover, the TGI in the test on NCI-H23 lung stood at 8.03 µM; in the test on OVCAR-4 ovarian, 22.4 µM; in the test with MDA-N it was 24 µM; in the test on BT-549 breast, 23.2 µM; in the test on MCF7 breast it was 39.1 µM; in the test on HCT-15 colon, 22.3 µM. Also, the TGI with SW-620 colon was above 100 µM; in the test with KM12 colon, 19.7 µM; with NCI/ADR-RES ovarian, 16.8 µM; in the test with IGROV1 ovarian it was 13.7 µM; with NCI-H522 lung, 16.8 µM; in the test with UO-31 renal it was 17.5 µM.
Consider `Cc1[nH]c2ncn3ncnc3c2c1Cc1ccccc1`, for which the TGI in the test on MDA-MB-435, with PC-3 prostate, with SK-OV-3 ovarian, with A498 renal, with SK-MEL-2 melanoma and with NCI-H23 lung was above 100 µM each time. In addition, the TGI in the test on OVCAR-4 ovarian, in the test with MDA-N, with BT-549 breast, in the test on MCF7 breast, in the test with HCT-15 colon and in the test with SW-620 colon was above 100 µM throughout. The TGI in the test with KM12 colon, with NCI/ADR-RES ovarian, with IGROV1 ovarian, with SN12C renal, in the test with HOP-92 NSCLC and in the test with NCI-H522 lung was above 100 µM in each case. This compound yielded a TGI with UO-31 renal above 100 µM.
For `COc1ccc(-c2nc(N(C)C)c3ccccc3n2)cc1`, the TGI was determined as 33.8 µM with MDA-MB-435; 58.8 µM with PC-3 prostate; 48.2 µM in the test on SK-OV-3 ovarian; 24.3 µM in the test with RPMI-8226 leukemia; 41.7 µM in the test with SK-MEL-2 melanoma; 69 µM in the test on NCI-H23 lung. Moreover, the TGI in the test with OVCAR-4 ovarian was above 100 µM; in the test with MDA-N, 32.5 µM; with BT-549 breast, 43.5 µM; in the test on MCF7 breast, 24.1 µM; with HCT-15 colon it was 37.8 µM; in the test on SW-620 colon, 63.5 µM. Moreover, the TGI is 68.8 µM with KM12 colon; 36.7 µM with NCI/ADR-RES ovarian; above 100 µM with IGROV1 ovarian; 39.8 µM in the test on SN12C renal; 68.8 µM in the test with HOP-92 NSCLC; 27.8 µM in the test on NCI-H522 lung. The compound further gave a TGI with UO-31 renal of 15.8 µM.
With `O=C1NCC2(CCN(Cc3ccccc3)CC2)N1`, the TGI in the test with MDA-MB-435, with PC-3 prostate, in the test with SK-OV-3 ovarian, with RPMI-8226 leukemia, in the test with SK-MEL-2 melanoma and in the test on NCI-H23 lung was above 100 µM throughout. Also, the TGI in the test on OVCAR-4 ovarian, in the test with MDA-N, in the test with BT-549 breast, in the test with MCF7 breast, with HCT-15 colon and in the test on SW-620 colon was above 100 µM each time. The TGI in the test with KM12 colon, with NCI/ADR-RES ovarian, in the test on IGROV1 ovarian, with SN12C renal, in the test with HOP-92 NSCLC and in the test on NCI-H522 lung was above 100 µM each time. The compound further showed a TGI in the test with UO-31 renal above 100 µM.
